The source of these data is patent US20250019385A1, “SPIROCYCLIC ANNULATED 2-AMINO-3-CYANO THIOPHENES AND DERIVATIVES FOR THE TREATMENT OF CANCER” (Boehringer Ingelheim International GmbH, priority 2023, published 2025).

For data set [1], the target named is KRAS (G12D)::SOS1 protein-protein interaction (Homo sapiens (Human), UniProt P01116, G12D). The experiment in a line: KRAS::SOS1 AlphaScreen binding assay (KRAS G12D). Conditions: GDP. The text has this: This assay can be used to examine the potency with which compounds according to the invention binding to (mutated) KRAS inhibit the protein-protein interaction between SOS1 and (mutated) KRAS e.g. KRAS G12C, KRAS G12D. […] Low IC50 values in this assay setting are indicative of strong inhibition of protein-protein interaction between SOS1 and KRAS:
These assays measure the inhibitory effect of compounds on KRAS mutant protein-protein interactions using the Alpha Screen technology by Perkin Elmer.
The following (mutant) enzyme forms of KRAS and interacting proteins are used in these assays at the given concentrations:
KRAS (G12D) 1-169, N-terminal 6His-tag, C-terminal avi-tag (Xtal BioStructures, Inc.); final assay concentration 10 nM and SOS1 564-1049, N-terminal 229 GST-tag, TEV cleavage site (Viva Biotech Ltd); final assay concentration 5 nM;
Test compounds dissolved in DMSO are dispensed onto assay plates (Proxiplate 384 PLUS, white, PerkinElmer; 6008289) using an Access Labcyte Workstation with the Labcyte Echo 55x. For the chosen highest assay concentration of 100 μM, 150 nL of compound solution are transferred from a 10 mM DMSO compound stock solution. A series of eleven fivefold dilutions per compound are transferred to the assay plate, compound dilutions are tested in duplicates. DMSO are added as backfill to a total volume of 150 nL.
The assays run on a fully automated robotic system in a darkened room below 100 Lux. To 150 nl of compound dilution 10 μl of a mix including KRAS mutant protein, SOS1 (final assay concentrations see above) and GDP nucleotide (Sigma G7127; final assay concentration 10 μM) in assay buffer (1×PBS, 0.1% BSA, 0.05% Tween 20) are added into columns 1-24.
After 30 minutes incubation time 5 μl of Alpha Screen bead mix in assay buffer are added into columns 1-23. Bead mix consists of AlphaLISA Glutathione Acceptor Beads (PerkinElmer, Cat No AL109) and AlphaScreen Streptavidin Donor Beads (PerkinElmer Cat No 6760002) in assay buffer at a final assay concentration of 10 μg/mL each.
Plates are kept at room temperature in a darkened incubator. After an additional 60 minutes incubation time the signal is measured in a PerkinElmer Envision HTS Multilabel Reader using the AlphaScreen specs from PerkinElmer.
Each plate contains up to 16 wells of a negative control depending on the dilution procedure (platewise or serial) (DMSO instead of test compound; with KRAS mutant::SOS1 GOP mix and bead mix; column 23) and 16 wells of a positive control (DMSO instead of test compound; with KRAS mutant::SOS1 GOP mix w/o bead mix; column 24).
As internal control known inhibitors of KRAS mutant::SOS1 interaction can be measured on each compound plate.
IC50 values are calculated and analyzed with Boehringer Ingelheim's MEGALAB C50 application using a 4 parametric logistic model.
Tables of example compounds disclosed herein contain IC50 values determined using the above assays (see Table 43).
Background: In Alpha technology, singlet oxygen from a donor bead excites a nearby acceptor bead.

The next data set deals with Ba/F3 cells KRAS G12D. The data set can be described thus: Ba/F3 proliferation assay (KRAS G12D). Format: cell-based. The note with it: Mus musculus, BaF3, 72 h, AlamarBlue viability. The procedure:
(§1) Ba/F3 cells are ordered from DSMZ (ACC300, Lot17) and grown in RPMI-1640 (ATCC 30-2001)+10% FCS+10 ng/mL IL-3 at 37° C. in 5% […] atmosphere. Plasmids containing KRASG12 mutants (i.e. […], G12C, G12V) are obtained from GeneScript. To generate KRASG12-dependent Ba/F3 models, Ba/F3 cells are transduced with retroviruses containing vectors that harbor KRASG12 isoforms. Platinum-E cells (Cell Biolabs) are used for retrovirus packaging. Retrovirus is added to Ba/F3 cells. To ensure infection, 4 μg/mL polybrene is added and cells are spinfected. Infection efficiency is confirmed by measuring GFP-positive cells using a cell analyzer. Cells with an infection efficiency of 10% to 20% are further cultivated and puromycin selection with 1 μg/mL is initiated. As a control, parental Ba/F3 cells are used to show selection status. Selection is considered successful when parental Ba/F3 cells cultures died. To evaluate the transforming potential of KRASG12 mutations, the growth medium is no longer supplemented with IL-3. Ba/F3 cells harboring the empty vector are used as a control. Approximately ten days before conducting the experiments, puromycin is left out.
(§2) For proliferation assays, Ba/F3 cells are seeded into 384-well plates at 1.5×1 (M cells/60 μL in growth media (RPMI-1640+10% FCS). Compounds (10 mM stock in DMSO) are added at logarithmic dose series using the ECHO acoustic liquid handler system (Beckman Coulter), normalizing for added DMSO and including DMSO controls. All compound treatments are performed in technical duplicates. For the TO time point measurement, untreated cells are analyzed at the time of compound addition. Treated cells are incubated for 72 h at 37° C. with 5% CO2 and cell viability is measured in the PerkinElmer Envision Multimode Reader using AlamarBlue™ (ThermoFisher) viability stain. Viability (stated as percent of control) is defined as relative fluorescence units RFU of each well divided by the RFU of cells in DMSO controls. IC50 values are determined from viability measurements by non-linear regression using a four-parameter model.

The test system of the next data set is Ba/F3 cells KRAS G12C. The experiment in a line: Ba/F3 proliferation assay (KRAS G12C). The class given is cell-based. The note with it: Mus musculus, BaF3, 72 h, AlamarBlue viability. On the procedure:
as §1, §2
On the technique in general: Resazurin is reduced to fluorescent resorufin, in cell work by metabolically active cells.

Another data set concerns Ba/F3 cells KRAS G12V. The data set can be described thus: Ba/F3 proliferation assay (KRAS G12V). Format: cell-based. Conditions: Mus musculus, BaF3, 72 h, AlamarBlue viability. On the procedure: as §1, §2
A short description of data set [2]: Metabolic (microsomal) stability assay, human liver microsomes (HLM). The class given is in vitro ADME. Conditions: 1 μM test compound, predicted clearance as percent of liver blood flow. The procedure: The metabolic degradation of the test compound is assayed at 37° C. with pooled liver microsomes (mouse (MLM), rat (RLM) or human (HLM)). The final incubation volume of 48 μL per time point contains TRIS buffer (pH 7.5; 0.1 M), magnesium chloride (6.5 mM), microsomal protein (0.5 mg/mL for mouse/rat, 1 mg/mL for human specimens) and the test compound at a final concentration of 1 μM. Following a short preincubation period at 37° C., the reactions are initiated by addition of 12 μL beta-nicotinamide adenine dinucleotide phosphate, reduced form (NADPH, 10 mM) and terminated by transferring an aliquot into solvent after different time points (0, 5, 15, 30, 60 min). Additionally, the NADPH-independent degradation is monitored in incubations without NADPH, terminated at the last time point by addition of acetonitrile. The quenched incubations are pelleted by centrifugation (4,000 rpm, 15 min). An aliquot of the supernatant is assayed by LC-MS/MS to quantify the concentration of parent compound in the individual samples.
In vitro intrinsic clearance (CLint,in vitro) is calculated from the time course of the disappearance of the test drug during the microsomal incubation. Each plot is fitted to the first-order elimination rate constant as C(t)=C0*exp(−ke*t), where C(t) and C0 are the concentration of unchanged test drug at incubation time t and that at preincubation and ke is the disappearance rate constant of the unchanged drug. Subsequently, CLint, in vitro (μL min^−1·amount protein) values are converted to predicted CLint,in vivo (mL min^−1·kg^−1) from incubation parameters according to the equation CLint, in vivo=CLint, in vitro×(incubation volume (mL)/amount protein (mg))×(amount protein (mg)/g liver tissue)×(liver weight/body wt.).
For better across species comparison the predicted clearance is expressed as percent of the liver blood flow [% QH] (mL min^−1·kg^−1) in the individual species. In general, high stability (corresponding to low % QH) of the compounds across species is desired.

Data set [3] can be described thus: Solubility measurement (DMSO solution precipitation method). Format: physicochemical. Conditions: aqueous buffer, kinetic from dmso stock. On the procedure:
A 10 mM DMSO stock solution of a test compound is used to determine its aq. solubility. The DMSO solution is diluted with an aq. medium (McIlvaine buffer with pH=4.5 or 6.8) to a final concentration of 250 μM. After 24 h of shaking at ambient temperature a potentially formed precipitate is removed by filtration. The concentration of the test compound in the filtrate is determined by LC-UV methods by calibrating the signal to the signal of a reference solution with complete dissolution of the test compound in acetonitrile/water (1:1) with known concentration.

Setting [4] is: McIlvaine buffer pH 4.5, 24 h, read-out: solubility pH 4.5.
Where [5] appears, read: McIlvaine buffer pH 6.8, 24 h, read-out: solubility pH 6.8.

In brackets after ≈: the same amount, converted by molar mass. Like-named read-outs stand apart in the source and are kept apart here.

KRAS (G12D)::SOS1 protein-protein interaction, sequence (P01116 other isoform, or with tags, fused parts or gaps G12D): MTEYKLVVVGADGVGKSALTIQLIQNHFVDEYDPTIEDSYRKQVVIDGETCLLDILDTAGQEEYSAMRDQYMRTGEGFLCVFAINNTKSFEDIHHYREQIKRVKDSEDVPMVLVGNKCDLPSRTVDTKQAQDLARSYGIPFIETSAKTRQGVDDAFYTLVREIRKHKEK

In general, IC50 refers to the midpoint of a concentration-inhibition curve. As a reminder, the solubility is how much of the substance goes into solution per volume. With `CO[C@H]1CCN(C)[C@@H]1[C@H](C)Oc1nc(-c2onc3c2CCC[C@@]32CCCc3sc(N)c(C#N)c32)nc2c1n(C)c(=O)n2[C@H]1CO[C@@H](C)C1` [I-48], the IC50 in data set [1] was determined as 2 nM; in the data set with Ba/F3 cells KRAS G12D, 3 nM; in the data set on Ba/F3 cells KRAS G12C it was 2 nM; with Ba/F3 cells KRAS G12V, 1 nM. In addition, in data set [2], the “HLM QH” value is 63%. The results for the solubility at 24 h in data set [3] (setting [4]) and in data set [3] (setting [5]) were over 148 µg/mL and 53 µg/mL (≈ 78.5 µM), respectively.
On to `CO[C@@H]1C[C@@H]([C@H](C)Oc2nc(-c3onc4c3CCC[C@@]43CCCc4sc(N)c(C#N)c43)nc3c2n(C)c(=O)n3[C@H]2CO[C@@H](C)C2)N(C)C1` [I-49], for which, in data set [2], the “HLM QH” value is 35%. Also, the results for the solubility at 24 h in data set [3] (setting [4]) and in data set [3] (setting [5]) were over 145 µg/mL and 56 µg/mL (≈ 83 µM), respectively.
On to `C[C@@H]1COC[C@H](n2c(=O)n(C)c3c(O[C@@H](C)[C@@H]4CC[C@H](C)N4C)nc(-c4onc5c4CCC[C@@]54CCCc5sc(N)c(C#N)c54)nc32)C1` [I-53], for which the IC50 turned out to be 1 nM in data set [1], 19 nM in the data set on Ba/F3 cells KRAS G12D, 6 nM in the data set with Ba/F3 cells KRAS G12C and 2 nM with Ba/F3 cells KRAS G12V. Moreover, the “HLM QH” value in data set [2] is listed as 45%. Moreover, the solubility at 24 h in data set [3] (setting [4]) was over 153 µg/mL; in data set [3] (setting [5]) it was 19 µg/mL (≈ 28.2 µM).
